Experiments:
Type in all cases: cell-based
[1] = system: Corynebacterium minutissimum (NBRC15361T); experiment: Growth inhibition activity (MIC, agar) against aerobic bacteria; settings: strain NBRC15361T; Mueller Hinton Agar, 37 degrees C. overnight
Procedure: (§1) In the present invention, the growth inhibition activity, which is an indicator of the antimicrobial activity, is evaluated by determining the Minimum Inhibitory Concentration (MIC) with an agar or liquid medium.
(§2) In the test for the growth inhibition activity, the following strains were used as skin-related bacteria: • Staphylococcus epidermidis: Staphylococcus epidermidis (JCM2414T and ATCC 12228) • Staphylococcus aureus: Staphylococcus aureus (NBRC12732 and JCM2151) • Skin indigenous bacteria which introduce a superficial infection: Corynebacterium minutissimum (NBRC15361T) • Armpit odor-causing bacteria: Corynebacterium xerosis (JCM1324)
(§3) The test strains were cultured in the liquid medium which the Bioresource center recommends, and then the test strains were subcultured to a Mueller Hinton Broth (Difco) at 30 degrees C. The grown bacteria were diluted to 10^6 CFU/ml with saline to adjust the bacteria fluids for inoculation.
(§4) Furthermore, in order to examine the growth inhibition activities against the bacteria by the above cooling agents, the concentration of the cooling agents: (3S)-CA20, (3R)-CA20, CA1, CA5, CA15, CA55 or CA MGH was diluted with ethanol to the required level of concentration for the determining the Minimum Inhibitory Concentration to produce the sample liquids.
(§5) Next, 100 μL of each sample liquid was added to 10 mL of a Mueller Hinton Agar (Difco) agar medium solution in a soluble state, and each agar medium solution was poured into a petri dish and solidified to prepare test plates having several concentrations of the sample liquids (several concentrations of the above cooling agents). Subsequently, 5 μL of the above bacteria fluids for inoculation were stamped on the test plates, and then the test plates were cultured at 37 degrees C. overnight.
(§6) In this way, the growth inhibition activities by (3S)-CA20, (3R)-CA20, CA1, CA5, CA15, CA55, CA MGH were examined. The minimum concentration of the cooling agent in which the growth of bacteria could not be confirmed was considered as the MIC (Minimum Inhibitory Concentration).
(§7) The minimum concentration of the cooling agent in which the grown strain could not be confirmed was considered as the MIC (Minimum Inhibitory Concentration).

[2] = system: Corynebacterium xerosis (JCM1324); experiment: as above; settings: strain JCM1324; Mueller Hinton Agar, 37 degrees C. overnight
Procedure: as §1, §2, §3, §4, §5, §6, §7

[3] = system: Staphylococcus aureus (JCM2151); experiment: as above; settings: strain JCM2151; Mueller Hinton Agar, 37 degrees C. overnight
Procedure: as §1, §2, §3, §4, §5, §6, §7

[4] = system: Staphylococcus aureus (NBRC12732); experiment: as above; settings: strain NBRC12732; Mueller Hinton Agar, 37 degrees C. overnight
Procedure: as §1, §2, §3, §4, §5, §6, §7

[5] = system: Staphylococcus epidermidis (JCM2414T); experiment: as above; settings: strain JCM2414T; Mueller Hinton Agar, 37 degrees C. overnight
Procedure: as §1, §2, §3, §4, §5, §6, §7

[6] = system: Bacillus subtilis (NBRC3134); experiment: as above; settings: strain NBRC3134; Mueller Hinton Agar, 37 degrees C. overnight
Procedure: as §1
(§8) Furthermore, the following bacteria were also used as other general aerobic bacteria: • Escherichia coli: Escherichia coli (NBRC3972) • Pseudomonas aeruginosa: Pseudomonas aeruginosa (NBRC13275) • Bacteria in intestines: Proteus vulgaris (NBRC3167) • Pneumobacillus: Klebsiella pneumoniae (NBRC13277) • Bacillus subtilis: Bacillus subtilis (NBRC3134)
as §3, §4, §5, §6, §7

[7] = system: Escherichia coli (NBRC3972); experiment: as above; settings: strain NBRC3972; Mueller Hinton Agar, 37 degrees C. overnight
Procedure: as §1, §8, §3, §4, §5, §6, §7

[8] = system: Klebsiella pneumoniae (NBRC13277); experiment: as above; settings: strain NBRC13277; Mueller Hinton Agar, 37 degrees C. overnight
Procedure: as §1, §8, §3, §4, §5, §6, §7

[9] = system: Proteus vulgaris (NBRC3167); experiment: as above; settings: strain NBRC3167; Mueller Hinton Agar, 37 degrees C. overnight
Procedure: as §1, §8, §3, §4, §5, §6, §7

[10] = system: Pseudomonas aeruginosa (NBRC13275); experiment: as above; settings: strain NBRC13275; Mueller Hinton Agar, 37 degrees C. overnight
Procedure: as §1, §8, §3, §4, §5, §6, §7

[11] = system: Actinomyces naeslundii (JCM8350); experiment: Growth inhibition activity (MIC, agar) against anaerobic bacteria; settings: strain JCM8350; Trypticase Soy Broth agar, 37 degrees C. for 3 days
Procedure: as §1
(§9) In the test for growth inhibition activity, the following strains were used: • Acne bacteria: Propionibacterium acnes (JCM6473) and (ATCC6919) • Abscess bacteria: Bacteroides fragilis (GAI5560) • Cavity-causing bacteria: Streptococcus mutans (JCM5175), Actinomyces naeslundii (JCM8350) and Actinomyces viscosus (JCM8352) • Periodontal pathogen: Fusobacterium nucleatum (JCM6328), Porphyromonas gingivalis (JCM8525), Prevotella nigrescens (JCM6322)
(§10) The test strains were cultured in a GAM medium (Nissui Pharmaceutical Co., LTD), a Schaedler Broth (BBL) or a Trypticase Soy Broth (BBL) liquid medium, and then the grown bacteria were diluted in saline to prepare turbidity 0.5 McFarland of the bacteria fluids for inoculation. The bacteria were cultured at 37 degrees C. for 3 days under an anaerobic condition by using AnaeroPack® from MGC.
as §4, with “cooling agent,” for “cooling agents,”, “of concentrations” for “of concentration”
(§11) Next, 100 μL of each sample liquid was added to 10 mL of a Trypticase Soy Broth agar medium solution in a soluble state, and each agar medium solution was poured into a petri dish and solidified, to prepare the test plates. Subsequently, 5 μL of above the bacteria fluids for inoculation were stamped on the test plates, and then the test plates were cultured at 37 degrees C. for 3 days.
(§12) The minimum concentration of the cooling agent in which the growth of bacteria could not be confirmed was considered as the MIC (Minimum Inhibitory Concentration).
as §12

[12] = system: Actinomyces viscosus (JCM8352); experiment: as above; settings: strain JCM8352; Trypticase Soy Broth agar, 37 degrees C. for 3 days
Procedure: as §1, §9, §10
as §4, with “cooling agent,” for “cooling agents,”, “of concentrations” for “of concentration”
as §11, §12, §12

[13] = system: Bacteroides fragilis (GAI5560); experiment: as above; settings: strain GAI5560; Trypticase Soy Broth agar, 37 degrees C. for 3 days
Procedure: as §1, §9, §10
as §4, with “cooling agent,” for “cooling agents,”, “of concentrations” for “of concentration”
as §11, §12, §12

[14] = system: Porphyromonas gingivalis (JCM8525); experiment: as above; settings: strain JCM8525; Trypticase Soy Broth agar, 37 degrees C. for 3 days
Procedure: as §1, §9, §10
as §4, with “cooling agent,” for “cooling agents,”, “of concentrations” for “of concentration”
as §11, §12, §12

[15] = system: Prevotella nigrescens (JCM6322); experiment: as above; settings: strain JCM6322; Trypticase Soy Broth agar, 37 degrees C. for 3 days
Procedure: as §1, §9, §10
as §4, with “cooling agent,” for “cooling agents,”, “of concentrations” for “of concentration”
as §11, §12, §12

[16] = system: Propionibacterium acnes (ATCC6919); experiment: as above; settings: strain ATCC6919; Trypticase Soy Broth agar, 37 degrees C. for 3 days
Procedure: as §1, §9, §10
as §4, with “cooling agent,” for “cooling agents,”, “of concentrations” for “of concentration”
as §11, §12, §12

[17] = system: Propionibacterium acnes (JCM6473); experiment: as above; settings: strain JCM6473; Trypticase Soy Broth agar, 37 degrees C. for 3 days
Procedure: as §1, §9, §10
as §4, with “cooling agent,” for “cooling agents,”, “of concentrations” for “of concentration”
as §11, §12, §12

[18] = system: Streptococcus mutans (JCM5175); experiment: as above; settings: strain JCM5175; Trypticase Soy Broth agar, 37 degrees C. for 3 days
Procedure: as §1, §9, §10
as §4, with “cooling agent,” for “cooling agents,”, “of concentrations” for “of concentration”
as §11, §12, §12

Row | Compound | MIC (Minimum Inhibitory Concentration) [1] [ppm] | MIC (Minimum Inhibitory Concentration) [2] [ppm] | MIC (Minimum Inhibitory Concentration) [3] [ppm] | MIC (Minimum Inhibitory Concentration) [4] [ppm] | MIC (Minimum Inhibitory Concentration) [5] [ppm] | MIC (Minimum Inhibitory Concentration) [6] [ppm] | MIC (Minimum Inhibitory Concentration) [7] [ppm] | MIC (Minimum Inhibitory Concentration) [8] [ppm] | MIC (Minimum Inhibitory Concentration) [9] [ppm] | MIC (Minimum Inhibitory Concentration) [10] [ppm] | MIC (Minimum Inhibitory Concentration) [11] [ppm] | MIC (Minimum Inhibitory Concentration) [12] [ppm] | MIC (Minimum Inhibitory Concentration) [13] [ppm] | MIC (Minimum Inhibitory Concentration) [14] [ppm] | MIC (Minimum Inhibitory Concentration) [15] [ppm] | MIC (Minimum Inhibitory Concentration) [16] [ppm] | MIC (Minimum Inhibitory Concentration) [17] [ppm] | MIC (Minimum Inhibitory Concentration) [18] [ppm]
1 | CC(O)CC(=O)OC1CC(C)CCC1C(C)C [(3R)-CA20, menthyl 3-hydroxybutanoate] | 200 | 100 | 100 | 200 | 200 | 200 | >1600 | 200 | >1600 | >1600 | 200 | 100 | 100 | 100 | 200 | 400 | 200 | 200
2 | N-alkyl-p-menthane-3-carboxamide [WS-3, reference compound] | >1600 | >1600 | >1600 | >1600 | >1600 | >1600 | >1600 | >1600 | >1600 | >1600 | >1600 | >1600 | >1600 | 200 | >1600 | >1600 | >1600 | >1600

Reference: patent US20140163099A1, “ANTIMICROBIAL COMPOSITION” (TAKASAGO INTERNATIONAL CORPORATION, priority 2011, published 2014)
